Results published in ChEMBL document CHEMBL1681728, “An automated, polymer-assisted strategy for the preparation of urea and thiourea derivatives of 15-membered azalides as potential antimalarial chemotherapeutics” (Bioorg Med Chem, 2011).

What was measured:
Format in all cases: functional, organism-based
Plasmodium falciparum [1] = experiment: Antimalarial activity against chloroquine-sensitive Plasmodium falciparum D6 assessed as inhibition of [3H]hypoxanthine incorporation after 96 hrs by microtiter plate scintillation counting
Plasmodium falciparum [2] = experiment: Antimalarial activity against chloroquine-,pyrimethamine-resistant Plasmodium falciparum W2 assessed as inhibition of [3H]hypoxanthine incorporation after 96 hrs by microtiter plate scintillation counting
Plasmodium falciparum [3] = experiment: Antimalarial activity against multidrug-resistant Plasmodium falciparum TM91C235 assessed as inhibition of [3H]hypoxanthine incorporation after 96 hrs by microtiter plate scintillation counting

SMILES	IC50 (Plasmodium falciparum [1])	IC50 (Plasmodium falciparum [2])	IC50 (Plasmodium falciparum [3])
CC[C@H]1OC(=O)[C@H](C)[C@@H](O[C@H]2C[C@@](C)(OC)[C@@H](O)[C@H](C)O2)[C@H](C)[C@@H](O[C@@H]2O[C@H](C)C[C@H](N(C)C)[C@H]2O)[C@](C)(O)C[C@@H](C)CN(CCCNC(=S)NC(c2ccccc2)(c2ccccc2)c2ccccc2)[C@H](C)[C@@H](O)[C@]1(C)O	0.125 µM	0.037 µM	0.0319 µM
CC[C@H]1OC(=O)[C@H](C)[C@@H](O[C@H]2C[C@@](C)(OC)[C@@H](O)[C@H](C)O2)[C@H](C)[C@@H](O[C@@H]2O[C@H](C)C[C@H](N(C)C)[C@H]2O)[C@](C)(O)C[C@@H](C)CN(CCCNC(=S)Nc2cccc([N+](=O)[O-])c2)[C@H](C)[C@@H](O)[C@]1(C)O	0.0534 µM	0.0483 µM	0.0429 µM
CC[C@H]1OC(=O)[C@H](C)[C@@H](O[C@H]2C[C@@](C)(OC)[C@@H](O)[C@H](C)O2)[C@H](C)[C@@H](O[C@@H]2O[C@H](C)C[C@H](N(C)C)[C@H]2O)[C@](C)(O)C[C@@H](C)CN(CCCNC(=S)NC(C)C)[C@H](C)[C@@H](O)[C@]1(C)O	2.61 µM	1.3 µM	0.428 µM
CC[C@H]1OC(=O)[C@H](C)[C@@H](O[C@H]2C[C@@](C)(OC)[C@@H](O)[C@H](C)O2)[C@H](C)[C@@H](O[C@@H]2O[C@H](C)C[C@H](N(C)C)[C@H]2O)[C@](C)(O)C[C@@H](C)CN(CCCNC(=S)NCC(C)C)[C@H](C)[C@@H](O)[C@]1(C)O	0.689 µM	0.495 µM	0.435 µM
CC[C@H]1OC(=O)[C@H](C)[C@@H](O[C@H]2C[C@@](C)(OC)[C@@H](O)[C@H](C)O2)[C@H](C)[C@@H](O[C@@H]2O[C@H](C)C[C@H](N(C)C)[C@H]2O)[C@](C)(O)C[C@@H](C)CN(CCCNC(=O)Nc2ccc(OC)cc2)[C@H](C)[C@@H](O)[C@]1(C)O	1.97 µM	0.256 µM	0.442 µM
CC[C@H]1OC(=O)[C@H](C)[C@@H](O[C@H]2C[C@@](C)(OC)[C@@H](O)[C@H](C)O2)[C@H](C)[C@@H](O[C@@H]2O[C@H](C)C[C@H](N(C)C)[C@H]2O)[C@](C)(O)C[C@@H](C)CN(CCCNC(=O)NCc2ccc(OC)cc2)[C@H](C)[C@@H](O)[C@]1(C)O	1.62 µM	0.204 µM	0.484 µM
CC[C@H]1OC(=O)[C@H](C)[C@@H](O[C@H]2C[C@@](C)(OC)[C@@H](O)[C@H](C)O2)[C@H](C)[C@@H](O[C@@H]2O[C@H](C)C[C@H](N(C)C)[C@H]2O)[C@](C)(O)C[C@@H](C)CN(CCCNC(=O)Nc2c(C)noc2-c2ccccc2)[C@H](C)[C@@H](O)[C@]1(C)O	0.936 µM	0.734 µM	0.492 µM
CC[C@H]1OC(=O)[C@H](C)[C@@H](O[C@H]2C[C@@](C)(OC)[C@@H](O)[C@H](C)O2)[C@H](C)[C@@H](O[C@@H]2O[C@H](C)C[C@H](N(C)C)[C@H]2O)[C@](C)(O)C[C@@H](C)CN(CCCNC(=O)NCc2ccco2)[C@H](C)[C@@H](O)[C@]1(C)O	5.61 µM	0.287 µM	0.495 µM
C=CCNC(=S)NCCCN1C[C@H](C)C[C@@](C)(O)[C@H](O[C@@H]2O[C@H](C)C[C@H](N(C)C)[C@H]2O)[C@@H](C)[C@H](O[C@H]2C[C@@](C)(OC)[C@@H](O)[C@H](C)O2)[C@@H](C)C(=O)O[C@H](CC)[C@@](C)(O)[C@H](O)[C@H]1C	1.14 µM	0.276 µM	0.514 µM
CC[C@H]1OC(=O)[C@H](C)[C@@H](O[C@H]2C[C@@](C)(OC)[C@@H](O)[C@H](C)O2)[C@H](C)[C@@H](O[C@@H]2O[C@H](C)C[C@H](N(C)C)[C@H]2O)[C@](C)(O)C[C@@H](C)CN(CCCNC(=O)Nc2cccs2)[C@H](C)[C@@H](O)[C@]1(C)O	0.964 µM	0.721 µM	0.549 µM
CC[C@H]1OC(=O)[C@H](C)[C@@H](O[C@H]2C[C@@](C)(OC)[C@@H](O)[C@H](C)O2)[C@H](C)[C@@H](O[C@@H]2O[C@H](C)C[C@H](N(C)C)[C@H]2O)[C@](C)(O)C[C@@H](C)CN(CCCNC(=O)Nc2ccc(CC#N)cc2)[C@H](C)[C@@H](O)[C@]1(C)O	1.79 µM	0.149 µM	0.571 µM
CC[C@H]1OC(=O)[C@H](C)[C@@H](O[C@H]2C[C@@](C)(OC)[C@@H](O)[C@H](C)O2)[C@H](C)[C@@H](O[C@@H]2O[C@H](C)C[C@H](N(C)C)[C@H]2O)[C@](C)(O)C[C@@H](C)CN(CCCNC(=O)NC2CCCC2)[C@H](C)[C@@H](O)[C@]1(C)O	6.02 µM	0.277 µM	0.616 µM
CC[C@H]1OC(=O)[C@H](C)[C@@H](O[C@H]2C[C@@](C)(OC)[C@@H](O)[C@H](C)O2)[C@H](C)[C@@H](O[C@@H]2O[C@H](C)C[C@H](N(C)C)[C@H]2O)[C@](C)(O)C[C@@H](C)CN(CCCNC(=O)NC(C)(C)C)[C@H](C)[C@@H](O)[C@]1(C)O	5.51 µM	0.411 µM	0.8 µM
CC[C@H]1OC(=O)[C@H](C)[C@@H](O[C@H]2C[C@@](C)(OC)[C@@H](O)[C@H](C)O2)[C@H](C)[C@@H](O[C@@H]2O[C@H](C)C[C@H](N(C)C)[C@H]2O)[C@](C)(O)C[C@@H](C)CN(CCCNC(=S)Nc2cccnc2)[C@H](C)[C@@H](O)[C@]1(C)O	1.21 µM	1.2 µM	0.801 µM
CCCCNC(=O)NCCCN1C[C@H](C)C[C@@](C)(O)[C@H](O[C@@H]2O[C@H](C)C[C@H](N(C)C)[C@H]2O)[C@@H](C)[C@H](O[C@H]2C[C@@](C)(OC)[C@@H](O)[C@H](C)O2)[C@@H](C)C(=O)O[C@H](CC)[C@@](C)(O)[C@H](O)[C@H]1C	5.8 µM	0.37 µM	0.82 µM
CC[C@H]1OC(=O)[C@H](C)[C@@H](O[C@H]2C[C@@](C)(OC)[C@@H](O)[C@H](C)O2)[C@H](C)[C@@H](O[C@@H]2O[C@H](C)C[C@H](N(C)C)[C@H]2O)[C@](C)(O)C[C@@H](C)CN(CCCNC(=O)Nc2ccc3c(c2)CCO3)[C@H](C)[C@@H](O)[C@]1(C)O	2.05 µM	1.59 µM	0.923 µM
CC[C@H]1OC(=O)[C@H](C)[C@@H](O[C@H]2C[C@@](C)(OC)[C@@H](O)[C@H](C)O2)[C@H](C)[C@@H](O[C@@H]2O[C@H](C)C[C@H](N(C)C)[C@H]2O)[C@](C)(O)C[C@@H](C)CN(CCCNC(=S)NC2CC2)[C@H](C)[C@@H](O)[C@]1(C)O	3.72 µM	0.679 µM	0.972 µM
CCC(C)NC(=O)NCCCN1C[C@H](C)C[C@@](C)(O)[C@H](O[C@@H]2O[C@H](C)C[C@H](N(C)C)[C@H]2O)[C@@H](C)[C@H](O[C@H]2C[C@@](C)(OC)[C@@H](O)[C@H](C)O2)[C@@H](C)C(=O)O[C@H](CC)[C@@](C)(O)[C@H](O)[C@H]1C (stereo partly drawn)	14 µM	0.489 µM	1.18 µM
CC[C@H]1OC(=O)[C@H](C)[C@@H](O[C@H]2C[C@@](C)(OC)[C@@H](O)[C@H](C)O2)[C@H](C)[C@@H](O[C@@H]2O[C@H](C)C[C@H](N(C)C)[C@H]2O)[C@](C)(O)C[C@@H](C)CN(CCCNC(=S)Nc2ccc(N3CCOCC3)nc2)[C@H](C)[C@@H](O)[C@]1(C)O	2.84 µM	1.96 µM	1.57 µM
CCNC(=O)NCCCN1C[C@H](C)C[C@@](C)(O)[C@H](O[C@@H]2O[C@H](C)C[C@H](N(C)C)[C@H]2O)[C@@H](C)[C@H](O[C@H]2C[C@@](C)(OC)[C@@H](O)[C@H](C)O2)[C@@H](C)C(=O)O[C@H](CC)[C@@](C)(O)[C@H](O)[C@H]1C	13.7 µM	13.7 µM	1.98 µM
CC[C@H]1OC(=O)[C@H](C)[C@@H](O[C@H]2C[C@@](C)(OC)[C@@H](O)[C@H](C)O2)[C@H](C)[C@@H](O[C@@H]2O[C@H](C)C[C@H](N(C)C)[C@H]2O)[C@](C)(O)C[C@@H](C)CN(CCCNC(=S)NCCN2CCCCC2)[C@H](C)[C@@H](O)[C@]1(C)O	9.29 µM	3.3 µM	3.03 µM
CC[C@H]1OC(=O)[C@H](C)[C@@H](O[C@H]2C[C@@](C)(OC)[C@@H](O)[C@H](C)O2)[C@H](C)[C@@H](O[C@@H]2O[C@H](C)C[C@H](N(C)C)[C@H]2O)[C@](C)(O)C[C@@H](C)CN(CCCNC(=S)NCCN2CCOCC2)[C@H](C)[C@@H](O)[C@]1(C)O	12.4 µM	2.09 µM	3.32 µM
CC[C@H]1OC(=O)[C@H](C)[C@@H](O[C@H]2C[C@@](C)(OC)[C@@H](O)[C@H](C)O2)[C@H](C)[C@@H](O[C@@H]2O[C@H](C)C[C@H](N(C)C)[C@H]2O)[C@](C)(O)C[C@@H](C)CN(CCCNC(=S)NCCCN2CCOCC2)[C@H](C)[C@@H](O)[C@]1(C)O	7.01 µM	1.27 µM	5.09 µM
CC[C@H]1OC(=O)[C@H](C)[C@@H](O[C@H]2C[C@@](C)(OC)[C@@H](O)[C@H](C)O2)[C@H](C)[C@@H](O[C@@H]2O[C@H](C)C[C@H](N(C)C)[C@H]2O)[C@](C)(O)C[C@@H](C)CN(CCCNC(=S)NCCCN(CC)CC)[C@H](C)[C@@H](O)[C@]1(C)O	0.794 µM	3.13 µM	12.4 µM
CC[C@H]1OC(=O)[C@H](C)[C@@H](O[C@H]2C[C@@](C)(OC)[C@@H](O)[C@H](C)O2)[C@H](C)[C@@H](O[C@@H]2O[C@H](C)C[C@H](N(C)C)[C@H]2O)[C@](C)(O)C[C@@H](C)CN(CCCNC(=O)Nc2c(C)noc2C)[C@H](C)[C@@H](O)[C@]1(C)O	12.8 µM	12.8 µM	12.8 µM
CC[C@H]1OC(=O)[C@H](C)[C@@H](O[C@H]2C[C@@](C)(OC)[C@@H](O)[C@H](C)O2)[C@H](C)[C@@H](O[C@@H]2O[C@H](C)C[C@H](N(C)C)[C@H]2O)[C@](C)(O)C[C@@H](C)CN(CCCNC(=S)NCCCl)[C@H](C)[C@@H](O)[C@]1(C)O	12.8 µM	12.8 µM	12.8 µM
